Among the test systems are HT29 colon; ACHN renal; OVCAR-8 ovarian; SNB-19 CNS; SF-295 CNS; HCT-15 colon; MALME-3M melanoma; SK-MEL-2 melanoma; HCT-116 colon; NCI-H226 lung.
Common to all, as to experiment: NCI tumour cell line growth inhibition, 48 h

Here are results for ten compounds from PubChem BioAssay (NCI).

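All cell lines were grown in 96-well plates and treated with compound for 48 hours. GI50 is the concentration that inhibits growth by half. Definition used: TGI = concentration required for complete inhibition of growth.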

Regarding `CSc1ccc(/C=C2\C=C(CC(=O)NCc3ccc(C(=O)c4ccccc4)cc3)c3cc(F)ccc32)cc1`, the GI50 was 0.0368 µM with HT29 colon; 0.261 µM in the test with ACHN renal; 0.0497 µM with OVCAR-8 ovarian; 0.0705 µM in the test with SNB-19 CNS; 0.0453 µM in the test with SF-295 CNS; 0.0492 µM in the test on HCT-15 colon. For the same compound, the GI50 in the test with MALME-3M melanoma is 0.215 µM; with SK-MEL-2 melanoma, 0.049 µM; in the test with HCT-116 colon, 0.0367 µM; in the test on NCI-H226 lung it was 0.0951 µM. The TGI in the test with HT29 colon was 2.73 µM; in the test on ACHN renal, 12.3 µM; in the test with OVCAR-8 ovarian, 8.12 µM; with SNB-19 CNS it was more than 100 µM; in the test with SF-295 CNS it was 6.9 µM; in the test on HCT-15 colon it was more than 51.3 µM. The TGI with MALME-3M melanoma was found to be 44.7 µM; with SK-MEL-2 melanoma, 7.04 µM; in the test with HCT-116 colon, 2.76 µM; in the test on NCI-H226 lung, 0.903 µM.
Turning to `Cc1nc(C(N)=S)sc1C(=O)C/C(=N/N)C(=O)Nc1cccc(Cl)c1C`, the TGI with HT29 colon, in the test on ACHN renal, with OVCAR-8 ovarian, with SNB-19 CNS, in the test with SF-295 CNS and in the test on HCT-15 colon was more than 100 µM throughout. The TGI with MALME-3M melanoma, in the test on SK-MEL-2 melanoma, with HCT-116 colon and with NCI-H226 lung was more than 100 µM in each case.
Take `CCC(c1cccc(O)c1)C(CC)c1cccc(O)c1` (stereo not drawn): the GI50 in the test on HT29 colon is 1.86 µM; with ACHN renal, 5.64 µM; in the test with OVCAR-8 ovarian, 12.8 µM; in the test with SNB-19 CNS, 13.2 µM; with SF-295 CNS, 3.99 µM; in the test with HCT-15 colon, 3.52 µM. In addition, the GI50 in the test with MALME-3M melanoma was 2.1 µM; in the test with SK-MEL-2 melanoma, 3.96 µM; with HCT-116 colon, 3.66 µM; in the test on NCI-H226 lung, 12.1 µM. Moreover, the TGI in the test on HT29 colon was 11.2 µM; with ACHN renal, 18.9 µM; in the test on OVCAR-8 ovarian, 35.2 µM; in the test with SNB-19 CNS, 26 µM; with SF-295 CNS, 19.7 µM; in the test with HCT-15 colon, 14.8 µM. For the same compound, the TGI amounted to 20 µM in the test on MALME-3M melanoma, 17.2 µM with SK-MEL-2 melanoma, 14.5 µM with HCT-116 colon and 26.3 µM in the test with NCI-H226 lung.
As for `O=Cc1ccc(-c2cccs2)s1`, the TGI was more than 68.1 µM in the test on HT29 colon; more than 100 µM in the test on ACHN renal; more than 100 µM with OVCAR-8 ovarian; more than 100 µM in the test on SNB-19 CNS; more than 100 µM in the test with SF-295 CNS; more than 100 µM with HCT-15 colon. Also, the TGI in the test with MALME-3M melanoma was more than 100 µM; in the test with SK-MEL-2 melanoma, more than 100 µM; in the test on HCT-116 colon it was more than 100 µM; in the test with NCI-H226 lung, 4.85 µM.
Turning to `COc1cc(Cn2c(-c3nonc3N)nc3ccccc32)ccc1C`, the GI50 with HT29 colon was 0.358 µM; in the test on ACHN renal it was 0.726 µM; with OVCAR-8 ovarian, 0.729 µM; in the test on SNB-19 CNS, 0.626 µM; in the test on SF-295 CNS it was 0.34 µM; in the test with HCT-15 colon, 0.427 µM. The GI50 is 0.526 µM in the test on MALME-3M melanoma, 0.417 µM in the test with SK-MEL-2 melanoma, 0.46 µM in the test on HCT-116 colon and 1.91 µM with NCI-H226 lung. The TGI with HT29 colon was 7.3 µM; with ACHN renal, more than 93.8 µM; with OVCAR-8 ovarian, more than 100 µM; with SNB-19 CNS, 45.5 µM; in the test on SF-295 CNS, 5.63 µM; in the test with HCT-15 colon it was more than 100 µM. In addition, the TGI with MALME-3M melanoma is 72.7 µM; with SK-MEL-2 melanoma it was 9.97 µM; with HCT-116 colon, more than 100 µM; with NCI-H226 lung it was more than 100 µM.
On to `O=[N+]([O-])c1ccc2c(c1)[O][Sn]([I])([I])[O]2`, for which the GI50 in the test with HT29 colon was more than 100 µM; with ACHN renal it was more than 100 µM; with OVCAR-8 ovarian, more than 100 µM; in the test with SNB-19 CNS, more than 100 µM; in the test on SF-295 CNS, more than 100 µM; with HCT-15 colon, 54.4 µM. Moreover, the GI50 in the test with MALME-3M melanoma, in the test with SK-MEL-2 melanoma, in the test with HCT-116 colon and with NCI-H226 lung was more than 100 µM each time. Besides, the TGI with HT29 colon, with ACHN renal, in the test with OVCAR-8 ovarian, in the test with SNB-19 CNS, in the test on SF-295 CNS and in the test with HCT-15 colon was more than 100 µM in each case. Moreover, the TGI with MALME-3M melanoma, in the test with SK-MEL-2 melanoma, with HCT-116 colon and in the test with NCI-H226 lung was more than 100 µM in each case.
Take `Cn1cc(CNCC2CCN(c3ncc(C(=O)NO)cn3)CC2)c2ccccc21`: the GI50 in the test on HT29 colon was less than 0.01 µM; in the test with ACHN renal, 0.0229 µM; in the test with OVCAR-8 ovarian, less than 0.01 µM; in the test with SNB-19 CNS it was 0.0251 µM; in the test on SF-295 CNS it was 0.0169 µM; in the test with HCT-15 colon it was 0.144 µM. Also, the GI50 in the test on MALME-3M melanoma was less than 0.01 µM; in the test with SK-MEL-2 melanoma it was less than 0.0151 µM; in the test on HCT-116 colon, less than 0.01 µM; with NCI-H226 lung it was 0.0351 µM. In addition, the TGI amounted to 0.587 µM in the test with HT29 colon; 0.0962 µM with ACHN renal; 0.9 µM in the test on SNB-19 CNS; 0.188 µM in the test with SF-295 CNS; 15.8 µM in the test on HCT-15 colon; 15.2 µM with MALME-3M melanoma. For the same compound, the TGI turned out to be 0.334 µM with SK-MEL-2 melanoma, 0.0328 µM in the test with HCT-116 colon and 1.09 µM with NCI-H226 lung.
Turning to `CCOC(=O)[C@H]1Nc2ccc(OC)cc2C2c3ccccc3CC21` (stereo partly drawn), the TGI in the test on HT29 colon, with ACHN renal, with OVCAR-8 ovarian, with SNB-19 CNS, in the test with SF-295 CNS and with HCT-15 colon was more than 100 µM in each case. In addition, the TGI with MALME-3M melanoma, in the test on SK-MEL-2 melanoma, in the test on HCT-116 colon and in the test with NCI-H226 lung was more than 100 µM each time.
As to `OCC1OC(n2cnc3c(/C=C(/O)c4ccccc4)ncnc32)C(O)C1O` (stereo not drawn), the TGI in the test on HT29 colon, in the test with ACHN renal, with OVCAR-8 ovarian, in the test on SNB-19 CNS, in the test on SF-295 CNS and in the test with HCT-15 colon was more than 100 µM each time. Besides, the TGI in the test with MALME-3M melanoma is more than 100 µM; with SK-MEL-2 melanoma, more than 24.7 µM; in the test on HCT-116 colon it was more than 100 µM; with NCI-H226 lung it was more than 92.7 µM.
Regarding `Cc1cc(=O)oc2cc(O)c(CN(C)CC(=O)O)cc12`, the TGI in the test on HT29 colon, with ACHN renal, in the test with OVCAR-8 ovarian, in the test with SNB-19 CNS, in the test on HCT-15 colon and with MALME-3M melanoma was more than 100 µM throughout. Also, the TGI in the test with SK-MEL-2 melanoma, in the test on HCT-116 colon and in the test with NCI-H226 lung was more than 100 µM each time.
